1 compound from paper PMC8850433, “CRISPR-assisted rational flux-tuning and arrayed CRISPRi screening of an L-proline exporter for L-proline hyperproduction” (Nature Communications, 2022) can be followed below.

In this assay the target is T1, Cgl2622 (Corynebacterium glutamicum, UniProt Q79VD1).
T1 construct: full-length membrane exporter, expressed from plasmid under IPTG-inducible Ptrc in cgl2622-deleted C. glutamicum
In kind it is cell-based. The following applies: intact C. glutamicum cells, CGXII medium, 20 g/L glucose, 3 mM Thr-Pro peptide, 30 °C; efflux.

T1 sequence (Q79VD1 1-489): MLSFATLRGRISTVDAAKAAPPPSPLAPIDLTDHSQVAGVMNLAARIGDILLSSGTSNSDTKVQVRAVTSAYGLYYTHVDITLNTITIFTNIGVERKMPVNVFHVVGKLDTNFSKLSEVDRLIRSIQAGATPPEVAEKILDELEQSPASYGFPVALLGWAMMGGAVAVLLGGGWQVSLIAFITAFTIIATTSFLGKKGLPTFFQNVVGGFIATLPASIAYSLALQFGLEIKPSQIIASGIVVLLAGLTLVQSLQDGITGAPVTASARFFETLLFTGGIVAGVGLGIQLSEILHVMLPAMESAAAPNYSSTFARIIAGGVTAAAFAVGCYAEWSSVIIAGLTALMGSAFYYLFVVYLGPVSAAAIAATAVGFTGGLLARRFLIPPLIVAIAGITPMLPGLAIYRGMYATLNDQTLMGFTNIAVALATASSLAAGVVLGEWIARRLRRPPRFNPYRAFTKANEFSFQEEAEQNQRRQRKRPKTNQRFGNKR

For the compound `O=C(O)[C@@H]1CCCN1` [L-proline], the “Thr-Pro peptide uptake and amino acid export assay, deletion vs complementation,” value was “These results further verify the function of Cgl2622 as an L-proline exporter”.
